How the values were obtained:
Format in all cases: in vivo
[1] = system: sicklepod (Cassia obtusifolia, CASOB); experiment: Pre-emerge test, greenhouse herbicide activity screening; conditions: pre-emerge, rated 14 days after application, 0 = no damage, 100 = complete death
Summary of the method: (§1)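 Herbicidal damage is scored 0 (none) to 100 (complete plant death) two weeks after a simulated field spray. Rates span 15–1000 g ai/ha, delivered in acetone at 187 l/ha. For post-emergence treatments, plants have 2–3 leaves and the spray carries 0.25% v/v non-ionic surfactant.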

[2] = system: johnsongrass (Sorghum halepense, SORHA); experiment: as above; conditions: pre-emerge, rated 14 days after application, 0 = no damage, 100 = complete death
Summary of the method: as §1

[3] = system: lambsquarters (Chenopodium album, CHEAL); experiment: as above; conditions: pre-emerge, rated 14 days after application, 0 = no damage, 100 = complete death
Summary of the method: as §1

[4] = system: barnyardgrass (Echinochloa crus-galli, ECHCG); experiment: as above; conditions: pre-emerge, rated 14 days after application, 0 = no damage, 100 = complete death
Summary of the method: as §1

[5] = system: common ragweed (Ambrosia artemisizfolia L., AMBEL); experiment: as above; conditions: pre-emerge, rated 14 days after application, 0 = no damage, 100 = complete death
Summary of the method: as §1

[6] = system: velvetleaf (Abutilon theophrasti, ABUTH); experiment: as above; conditions: pre-emerge, rated 14 days after application, 0 = no damage, 100 = complete death
Summary of the method: as §1

[7] = system: large crabgrass (Digitaria sanguinalis, DIGSA); experiment: as above; conditions: pre-emerge, rated 14 days after application, 0 = no damage, 100 = complete death
Summary of the method: as §1

[8] = system: ivyleaf morningglory (Ipomoea hederacea, IPOHE); experiment: as above; conditions: pre-emerge, rated 14 days after application, 0 = no damage, 100 = complete death
Summary of the method: as §1

[9] = system: green foxtail (Setaria viridis, SETVI); experiment: as above; conditions: pre-emerge, rated 14 days after application, 0 = no damage, 100 = complete death
Summary of the method: as §1

[10] = system: field corn (Zea mays L., var. Dekalb 535, CORN); experiment: Post-emerge test, crop safety; conditions: phytotoxicity rating 0-100 (0 no damage, 100 complete death), 14 days after application
Summary of the method: as §1

[11] = system: upland rice (Oryza sp., var. Tebonnet, RICE); experiment: Post-emerge test, crop safety; conditions: phytotoxicity rating 0-100 (0 no damage, 100 complete death), 14 days after application
Summary of the method: as §1

[12] = system: sicklepod (Cassia obtusifolia, CASOB); experiment: Post-emerge test, greenhouse herbicide activity screening; conditions: phytotoxicity rating 0-100 (0 no damage, 100 complete death), 14 days after application
Summary of the method: (§2)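 Plants grown in 10 cm pots of sandy loam mix received acetone-dissolved compounds through a moving flat-fan nozzle. Doses ranged from 15 to 1000 g ai/ha. Pre-emerge pots were seeded one day earlier, post-emerge pots 8–21 days earlier. Fourteen days on, each pot was graded 0–100 for damage.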

[13] = system: redroot pigweed (Amaranthus retroflexus, AMARE); experiment: as above; conditions: phytotoxicity rating 0-100 (0 no damage, 100 complete death), 14 days after application
Summary of the method: as §2

[14] = system: johnsongrass (Sorghum halepense, SORHA); experiment: as above; conditions: phytotoxicity rating 0-100 (0 no damage, 100 complete death), 14 days after application
Summary of the method: as §2

[15] = system: lambsquarters (Chenopodium album, CHEAL); experiment: as above; conditions: phytotoxicity rating 0-100 (0 no damage, 100 complete death), 14 days after application
Summary of the method: as §2

[16] = system: barnyardgrass (Echinochloa crus-galli, ECHCG); experiment: as above; conditions: phytotoxicity rating 0-100 (0 no damage, 100 complete death), 14 days after application
Summary of the method: as §2

[17] = system: common ragweed (Ambrosia artemisizfolia L., AMBEL); experiment: as above; conditions: phytotoxicity rating 0-100 (0 no damage, 100 complete death), 14 days after application
Summary of the method: as §2

[18] = system: velvetleaf (Abutilon theophrasti, ABUTH); experiment: as above; conditions: phytotoxicity rating 0-100 (0 no damage, 100 complete death), 14 days after application
Summary of the method: as §2

[19] = system: large crabgrass (Digitaria sanguinalis, DIGSA); experiment: as above; conditions: phytotoxicity rating 0-100 (0 no damage, 100 complete death), 14 days after application
Summary of the method: as §2

[20] = system: ivyleaf morningglory (Ipomoea hederacea, IPOHE); experiment: as above; conditions: phytotoxicity rating 0-100 (0 no damage, 100 complete death), 14 days after application
Summary of the method: as §2

[21] = system: green foxtail (Setaria viridis, SETVI); experiment: as above; conditions: phytotoxicity rating 0-100 (0 no damage, 100 complete death), 14 days after application
Summary of the method: as §2

[22] = system: field corn (Zea mays L., var. Dekalb 535, CORN); experiment: Pre-emerge test, crop safety; conditions: pre-emerge, rated 14 days after application, 0 = no damage, 100 = complete death
Summary of the method: (§3)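 Compounds in acetone were track-sprayed at 15-1000 g ai/ha (187 l/ha) on sandy loam pots: pre-emerge one day after seeding, post-emerge at 2-3 leaf stage with 0.25% v/v non-ionic surfactant. Phytotoxicity was rated 14 days later on a 0 (no damage) to 100 (complete death) scale.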

[23] = system: upland rice (Oryza sp., var. Tebonnet, RICE); experiment: Pre-emerge test, crop safety; conditions: pre-emerge, rated 14 days after application, 0 = no damage, 100 = complete death
Summary of the method: as §3

[24] = system: redroot pigweed (Amaranthus retroflexus, AMARE); experiment: Pre-emerge test, greenhouse herbicide activity screening; conditions: pre-emerge, rated 14 days after application, 0 = no damage, 100 = complete death
Summary of the method: as §1

Cn1c(C(F)(F)F)cc(=O)n(-c2c(F)cc(Cl)c(OC3CCCC3)c2N)c1=O [Compound 1-21]
Pre-emerge Herbicidal Activity CASOB (phytotoxicity rating, scale 0-100) ([1]; 63 g ai/ha): 0
Pre-emerge Herbicidal Activity CASOB (phytotoxicity rating, scale 0-100) ([1]; 250 g ai/ha): 0
Pre-emerge Herbicidal Activity SORHA (phytotoxicity rating, scale 0-100) ([2]; 63 g ai/ha): 0
Pre-emerge Herbicidal Activity SORHA (phytotoxicity rating, scale 0-100) ([2]; 250 g ai/ha): 90
Pre-emerge Herbicidal Activity CHEAL (phytotoxicity rating, scale 0-100) ([3]; 63 g ai/ha): 100
Pre-emerge Herbicidal Activity CHEAL (phytotoxicity rating, scale 0-100) ([3]; 250 g ai/ha): 100
Pre-emerge Herbicidal Activity ECHCG (phytotoxicity rating, scale 0-100) ([4]; 63 g ai/ha): 0
Pre-emerge Herbicidal Activity ECHCG (phytotoxicity rating, scale 0-100) ([4]; 250 g ai/ha): 95
Pre-emerge Herbicidal Activity AMBEL (phytotoxicity rating, scale 0-100) ([5]; 63 g ai/ha): 0
Pre-emerge Herbicidal Activity AMBEL (phytotoxicity rating, scale 0-100) ([5]; 250 g ai/ha): 100
Pre-emerge Herbicidal Activity ABUTH (phytotoxicity rating, scale 0-100) ([6]; 63 g ai/ha): 70
Pre-emerge Herbicidal Activity ABUTH (phytotoxicity rating, scale 0-100) ([6]; 250 g ai/ha): 100
Pre-emerge Herbicidal Activity DIGSA (phytotoxicity rating, scale 0-100) ([7]; 63 g ai/ha): 70
Pre-emerge Herbicidal Activity DIGSA (phytotoxicity rating, scale 0-100) ([7]; 250 g ai/ha): 100
Pre-emerge Herbicidal Activity IPOHE (phytotoxicity rating, scale 0-100) ([8]; 63 g ai/ha): 0
Pre-emerge Herbicidal Activity IPOHE (phytotoxicity rating, scale 0-100) ([8]; 250 g ai/ha): 40
Pre-emerge Herbicidal Activity SETVI (phytotoxicity rating, scale 0-100) ([9]; 63 g ai/ha): 95
Pre-emerge Herbicidal Activity SETVI (phytotoxicity rating, scale 0-100) ([9]; 250 g ai/ha): 100
Post-emerge Herbicidal Activity CORN (crop damage) ([10]; 63 g ai/ha): 5
Post-emerge Herbicidal Activity CORN (crop damage) ([10]; 250 g ai/ha): 5
Post-emerge Herbicidal Activity RICE (crop damage) ([11]; 63 g ai/ha): 10
Post-emerge Herbicidal Activity RICE (crop damage) ([11]; 250 g ai/ha): 10
Post-emerge Herbicidal Activity CASOB ([12]; 63 g ai/ha): 10
Post-emerge Herbicidal Activity CASOB ([12]; 250 g ai/ha): 30
Post-emerge Herbicidal Activity AMARE ([13]; 63 g ai/ha): 95
Post-emerge Herbicidal Activity AMARE ([13]; 250 g ai/ha): 100
Post-emerge Herbicidal Activity SORHA ([14]; 63 g ai/ha): 0
Post-emerge Herbicidal Activity SORHA ([14]; 250 g ai/ha): 0
Post-emerge Herbicidal Activity CHEAL ([15]; 63 g ai/ha): 75
Post-emerge Herbicidal Activity CHEAL ([15]; 250 g ai/ha): 95
Post-emerge Herbicidal Activity ECHCG ([16]; 63 g ai/ha): 0
Post-emerge Herbicidal Activity ECHCG ([16]; 250 g ai/ha): 0
Post-emerge Herbicidal Activity AMBEL ([17]; 63 g ai/ha): 10
Post-emerge Herbicidal Activity AMBEL ([17]; 250 g ai/ha): 30
Post-emerge Herbicidal Activity ABUTH ([18]; 63 g ai/ha): 85
Post-emerge Herbicidal Activity ABUTH ([18]; 250 g ai/ha): 100
Post-emerge Herbicidal Activity DIGSA ([19]; 63 g ai/ha): 0
Post-emerge Herbicidal Activity DIGSA ([19]; 250 g ai/ha): 0
Post-emerge Herbicidal Activity IPOHE ([20]; 63 g ai/ha): 70
Post-emerge Herbicidal Activity IPOHE ([20]; 250 g ai/ha): 90
Post-emerge Herbicidal Activity SETVI ([21]; 63 g ai/ha): 10
Post-emerge Herbicidal Activity SETVI ([21]; 250 g ai/ha): 30
Pre-emerge crop damage CORN (phytotoxicity rating, scale 0-100) ([22]; 63 g ai/ha): 0
Pre-emerge crop damage CORN (phytotoxicity rating, scale 0-100) ([22]; 250 g ai/ha): 0
Pre-emerge crop damage RICE (phytotoxicity rating, scale 0-100) ([23]; 63 g ai/ha): 0
Pre-emerge crop damage RICE (phytotoxicity rating, scale 0-100) ([23]; 250 g ai/ha): 10
Pre-emerge Herbicidal Activity AMARE (phytotoxicity rating, scale 0-100) ([24]; 63 g ai/ha): 98
Pre-emerge Herbicidal Activity AMARE (phytotoxicity rating, scale 0-100) ([24]; 250 g ai/ha): 100

Source: patent US6355799B1, “Substituted benzene compounds, process for their preparation, and herbicidal and defoliant compositions containing them” (ISK Americas Incorporated, priority 1997, dated 2002)
